Source: patent US7816371B2, “Bicycloheteroaryl compounds as P2X7 modulators and uses thereof” (Renovis, Inc., priority 2006, dated 2010)

Tests used:
[1] = Pharmacokinetic evaluation following intravenous and oral administration in rats (oral bioavailability); format: in vivo, Male Sprague-Dawley rats; settings: PO 1 to 5 mg/kg vs IV 1 mg/kg, AUCinf normalized to dose
Experimental: Male Sprague-Dawley rats are acclimatized for at least 24 hours prior to experiment initiation. […] During the first 3 hours of experimentation, the animals receive only water ad libitum. At least three animals each are tested for intravenous and oral dosage. For intravenous formulation, compounds were dissolved (0.25 to 1 mg/mL) in a mixture of 3% dimethyl sulfoxide, 40% PEG 400 and the rest percentage of 40% Captisol in water (w/v). The animals are weighed before dosing. The determined body weight is used to calculate the dose volume for each animal.
PO rats are typically dosed through oral gavage following the same dose volume formula as IV to achieve a dose level of 1 to 5 mg/kg. […] About 250 uL of blood is obtained at each time point from the animal. Equal volumes of 0.9% normal saline are replaced to prevent dehydration. The whole blood samples are maintained on ice until centrifugation. Blood samples are then centrifuged at 14,000 rpm for 10 minutes at 4° C. and the upper plasma layer transferred into a clean vial and stored at −80° C. The resulting plasma samples are then analyzed by liquid chromatography-tandem mass spectrometry. Following the measurement of plasma samples and dosing solutions, plasma concentration-time curve is plotted. […] The % F is reported as the mean % F of all animals dosed orally with the compound of the invention at the specified level (see Table 4 below).

P2X7 receptor = target: T1, P2X7 receptor (Homo sapiens, UniProt Q99572); assay: IL-1β release assay in differentiated THP-1 cells stimulated with BzATP (Example 9); % inhibition and IC50; format: cell-based; settings: THP-1 cells differentiated with LPS and IFN-γ, 30 min pretreatment, BzATP 250 uM, IL-1β by ELISA
T1 construct: host or cells: THP-1 cells differentiated with LPS and IFN-γ
T1 sequence (Q99572 1-595): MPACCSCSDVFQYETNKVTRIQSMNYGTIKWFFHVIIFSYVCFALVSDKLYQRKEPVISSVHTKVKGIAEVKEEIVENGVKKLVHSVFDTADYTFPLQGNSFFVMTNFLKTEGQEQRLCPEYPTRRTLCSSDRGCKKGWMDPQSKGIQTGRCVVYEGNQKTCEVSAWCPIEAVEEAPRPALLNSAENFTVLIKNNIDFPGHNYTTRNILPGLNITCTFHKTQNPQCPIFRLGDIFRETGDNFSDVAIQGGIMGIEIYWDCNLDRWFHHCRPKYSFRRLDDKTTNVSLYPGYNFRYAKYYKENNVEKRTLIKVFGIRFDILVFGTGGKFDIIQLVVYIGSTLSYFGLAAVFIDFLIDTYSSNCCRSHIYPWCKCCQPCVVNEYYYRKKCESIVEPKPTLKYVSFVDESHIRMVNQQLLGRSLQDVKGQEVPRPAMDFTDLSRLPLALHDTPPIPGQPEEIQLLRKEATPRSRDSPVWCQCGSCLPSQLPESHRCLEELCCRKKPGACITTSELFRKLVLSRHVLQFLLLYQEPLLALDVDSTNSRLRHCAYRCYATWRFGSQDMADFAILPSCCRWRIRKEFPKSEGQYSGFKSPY
Procedure, shortened: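 Differentiated THP-1 cells pretreated 30 min with compound in RPMI before BzATP stimulation. Supernatant IL-1β measured by ELISA. Percent inhibition derived from background-adjusted IL-1β of treated versus untreated cells.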

[2] = Determination of aqueous (kinetic) solubility; format: physicochemical; settings: buffer pH 7.4, room temperature
Experimental: The mixture was vortexed for 1 hour and equilibrated overnight at room temperature. The mixture was filtered through a saturated filter and the filtrate was analyzed by LC/MS/MS.

| SMILES | IC50 (P2X7 receptor) | also measured |
| --- | --- | --- |
| Cc1ccc2c(=O)n([C@H](C)CO)ccc2c1NC(=O)Cc1cccc(C(F)(F)F)c1F [Compound 395] |  | Oral Bioavailability F (%) [1]: ++ (26-50% F) |
| O=C(Cc1ccc(Cl)c(F)c1)Nc1cccc2c(=O)n(CCO)ccc12 [Compound 354] | 0.0842 µM |  |
| C[C@@H](CO)n1ccc2c(NC(=O)Cc3ccc(C(F)(F)F)cc3)cccc2c1=O [Compound 318] | 0.133 µM |  |
| C[C@H](C(=O)Nc1cccc2c(=O)n([C@H](C)C(=O)NC3CC3)ccc12)c1ccc(Cl)cc1 [Compound 308, (R)-2-{5-[(S)-2-(4-Chloro-phenyl)-propionylamino]-1-oxo-1H-isoquinolin-2-yl}-N-cyclopropyl-propionamide] | 0.302 µM |  |
| C[C@H](C(N)=O)n1ccc2c(NC(=O)Cc3ccccc3F)cccc2c1=O [Compound 294] | 0.663 µM |  |
| C[C@H](C(N)=O)n1ccc2c(NC(=O)Cc3ccccn3)cccc2c1=O [Compound 309] | > 1 µM |  |
| O=C(Cc1ccc(F)c(C(F)(F)F)c1)Nc1c(Cl)ccc2c(=O)n(CCO)ccc12 [Compound 386, N-[6-Chloro-2-(2-hydroxy-ethyl)-1-oxo-1,2-dihydro-isoquinolin-5-yl]-2-(4-fluoro-3-trifluoromethyl-phenyl)-acetamide] | 0.00545 µM |  |
| O=C(Cc1cc(C(F)(F)F)cc(C(F)(F)F)c1)Nc1cccc2c(=O)n(CCO)ccc12 [Compound 64] | 0.113 µM |  |
| CC(C(=O)Nc1cccc2c(=O)n([C@@H](C)C(N)=O)ccc12)c1cccc(C(F)(F)F)c1F (some centres unmarked) [Compound 355] | 0.0369 µM |  |
| C[C@H](C(N)=O)n1ccc2c(NC(=O)Cc3ccc(Cl)cc3F)c(Cl)ccc2c1=O [Compound 343] | 0.395 µM |  |
| O=C(Cc1ccc(Cl)c(Cl)c1)Nc1cccc2c(=O)n(C(CO)CO)ccc12 [Compound 80] | 0.0275 µM |  |
| NCC(CCl)Cn1ccc2c(NC(=O)Cc3ccc(Cl)c(Cl)c3)cccc2c1=O (centres unmarked) [Compound 259] | 0.208 µM |  |
| CNC(=O)[C@@H](CO)n1ccc2c(NC(=O)C(C)c3ccc(Cl)cc3)cccc2c1=O (some centres unmarked) [Compound 261] | 0.188 µM |  |
| CNC(=O)[C@@H](C(C)C)n1ccc2c(NC(=O)[C@H](C)c3ccc(Cl)cc3)cccc2c1=O [Compound 277] | 0.082 µM |  |
| C[C@@H](CO)n1ccc2c(NC(=O)Cc3ccc(Cl)cc3F)cccc2c1=O [Compound 328] | 0.202 µM |  |
| CC(C(=O)Nc1cccc2c(=O)n(C[C@@H]3CCCN3)ccc12)c1ccc(Cl)cc1 (some centres unmarked) [Compound 246] | 0.113 µM |  |
| CC(C)(CO)n1ccc2c(NC(=O)Cc3ccc(C(F)(F)F)cc3F)cccc2c1=O [Compound 370] | 0.134 µM |  |

More lines, main results first:

| IC50 (P2X7 receptor) | SMILES | also measured |
| --- | --- | --- |
| 0.00144 µM | Cc1ccc2c(c1NC(=O)Cc1ccc(C(F)(F)F)c(F)c1)CCN([C@H](C)CO)C2=O [Compound 401, N-[6-Methyl-2-((R)-2-hydroxy-1-methyl-ethyl)-1-oxo-1,2,3,4-tetrahydro-isoquinolin-5-yl]-2-(3-fluoro-4-trifluoromethyl-phenyl)-acetamide] | solubility [2]: > 75 µM |
| 0.0107 µM | O=C(Cc1ccc(Cl)c(C(F)(F)F)c1)Nc1cccc2c(=O)n(C[C@@H]3CCCN3)ccc12 [Compound 232, 2-(4-Chloro-3-trifluoromethyl-phenyl)-N-(1-oxo-2-(S)-1-pyrrolidin-2-ylmethyl-1,2-dihydro-isoquinolin-5-yl)-acetamide] |  |
| 0.0097 µM | CC(C)[C@H](C(N)=O)n1ccc2c(NC(=O)[C@@H](C)c3ccc(Cl)cc3)cccc2c1=O [Compound 283] |  |
| 0.0146 µM | O=C(Cc1ccc(C(F)(F)F)c(F)c1)Nc1cccc2c(=O)n(CCO)ccc12 [Compound 357] |  |
| 0.0236 µM | C[C@H](C(N)=O)n1ccc2c(NC(=O)Cc3ccc(Cl)cc3C(F)(F)F)cccc2c1=O [Compound 241] |  |
| 0.0152 µM | C[C@H](C(=O)Nc1cccc2c(=O)n([C@@H](C)C(N)=O)ccc12)c1ccc(Cl)cc1 [Compound 265] |  |
| 0.0151 µM | NC(=O)[C@H](CO)n1ccc2c(NC(=O)Cc3ccc(Cl)c(C(F)(F)F)c3)cccc2c1=O [Compound 250, (S)-2-{5-[2-(4-Chloro-3-trifluoromethyl-phenyl)-acetylamino]-1-oxo-1H-isoquinolin-2-yl}-3-hydroxy-propionamide] |  |
| 0.0179 µM | C[C@H](C(N)=O)n1ccc2c(NC(=O)Cc3ccc(C(F)(F)F)cc3F)cccc2c1=O [Compound 296] |  |
